Results on 55 molecules are retold here after ChEMBL document CHEMBL5154725, “SAR evolution towards potent C-terminal carboxamide peptide inhibitors of Zika virus NS2B-NS3 protease” (Bioorg Med Chem, 2022).

Non-standard residues stand in square brackets, D forms with d. Residues, ends and D or L forms follow the SMILES beside them. *: point of attachment. Phe(4-CONH2) = NC(=O)c1ccc(C[C@H](N)C(=O)O)cc1; Phe(4-CH2NH2) = NCc1ccc(C[C@H](N)C(=O)O)cc1; AEF = NCCOc1ccc(C[C@H](N)C(=O)O)cc1; Orn = NCCC[C@H](N)C(=O)O; Dab = NCC[C@H](N)C(=O)O; PhAc = O=C(Cc1ccccc1)*; NHBn = c1ccc(CN*)cc1; NHCH2CH2OH = OCCN*

The test in a line: Inhibition of 6-His tagged-G4SG4 fused ZIKV NS2B (49 to 95 residues) R95A mutant-NS3 (1 to 170 residue) R29G mutant expressed in Escherichia coli BL21 (DE3) using Bz-Nle-K-RR-AMC substrate preincubated for 10 mins followed by substrate addition and measured after 30 mins by fluorescence assay. Also on record: species or system Zika virus.
The IC50 is the concentration needed to halve the response being measured. Turning to `N=C(N)NCCC[C@H](NC(=O)[C@H](Cc1ccc(C(N)=O)cc1)NC(=O)[C@H](CCCCN)NC(=O)Cc1ccccc1)C(N)=O` (PhAc-Lys-[Phe(4-CONH2)]-Arg-NH2), the concentration for half-maximal inhibition (IC50) is greater than 100 µM.

`COc1ccc([C@H](NC(=O)[C@H](CCCCN)NC(=O)[C@H](CCCNC(=N)N)NC(=O)c2cccs2)C(N)=O)cc1` came in with an IC50 of 44.3 µM.

The molecule `CN(Cc1ccccc1)C(=O)[C@@H](NC(=O)[C@H](CCCCN)NC(=O)[C@H](CCCCN)NC(=O)Cc1ccccc1)c1ccc(OCc2ccc(C(F)(F)F)cc2)cc1` yielded an IC50 of 4.7 µM.

`NCCCC[C@H](NC(=O)Cc1ccccc1)C(=O)N[C@@H](CCCCN)C(=O)N[C@H](C(N)=O)c1ccc(OCc2ccc(C(F)(F)F)cc2)cc1` displayed an IC50 of 9.2 µM.

On to `NCCCC[C@H](NC(=O)Cc1ccncc1)C(=O)N[C@@H](CCCCN)C(=O)N[C@H](C(=O)NCc1ccccc1)c1ccc(OCc2ccc(C(F)(F)F)cc2)cc1`, for which the midpoint of inhibition, the IC50, lay at 0.069 µM.

The molecule `NCCCC[C@H](NC(=O)Oc1ccccc1)C(=O)N[C@@H](CCCCN)C(=O)N[C@H](C(=O)NCc1ccccc1)c1ccc(OCc2ccc(C(F)(F)F)cc2)cc1` came in with an IC50 of 0.84 µM.

Take `CC(NC(=O)[C@H](CCCCN)NC(=O)[C@H](CCCNC(=N)N)NC(=O)c1cccs1)c1ccc(OCc2ccc(C(F)(F)F)cc2)cc1` (mixture of isomers): half-maximal inhibition (IC50) was put at 10.9 µM.

The molecule `N=C(N)NCCC[C@H](NC(=O)[C@H](CCCCN)NC(=O)[C@H](CCCCN)NC(=O)Cc1ccccc1)C(=O)NCC1CCCCC1` yielded an IC50 of 1.8 µM.

`N=C(N)NCCC[C@H](NC(=O)c1cccs1)C(=O)N[C@@H](CCCCN)C(=O)N[C@H](C(N)=O)c1ccc(OCc2ccncc2)cc1` returned an IC50 of 12.1 µM.

Consider `N=C(N)NCCC[C@H](NC(=O)[C@H](CCCCN)NC(=O)[C@H](Cc1ccc(OCCN)cc1)NC(=O)Cc1ccccc1)C(N)=O` (PhAc-[AEF]-Lys-Arg-NH2), for which the IC50 turned out to be 30.7 µM.

In turn, `COc1ccc(CC(=O)N[C@@H](CCCCN)C(=O)N[C@@H](CCCCN)C(=O)N[C@H](C(=O)NCc2ccccc2)c2ccc(OCc3ccc(C(F)(F)F)cc3)cc2)cc1` returned an IC50 of 0.27 µM.

For the molecule `NCCCC[C@H](NC(=O)Cc1ccccc1)C(=O)N[C@@H](CCCCN)C(=O)N[C@H](C(=O)NCCc1ccccc1)c1ccc(OCc2ccc(C(F)(F)F)cc2)cc1`, the IC50 was determined as 0.62 µM.

In turn, `N=C(N)CCCC[C@H](NC(=O)[C@H](CCCCN)NC(=O)[C@H](Cc1ccc(C(N)=O)cc1)NC(=O)Cc1ccccc1)C(N)=O` displayed an IC50 of 42.3 µM. Against the preceding molecule, the IC50 is about 68-fold higher.

On to `N=C(N)NCCC[C@H](NC(=O)[C@H](CCCCN)NC(=O)[C@H](Cc1ccc(CN)cc1)NC(=O)Cc1ccccc1)C(N)=O` (PhAc-[Phe(4-CH2NH2)]-Lys-Arg-NH2), for which the IC50 turned out to be 8.57 µM.

In turn, `NCCCC[C@H](NC(=O)[C@H](CCCCN)NS(=O)(=O)Cc1ccccc1)C(=O)N[C@H](C(=O)NCc1ccccc1)c1ccc(OCc2ccc(C(F)(F)F)cc2)cc1` had an IC50 of 1.8 µM.

On to `N=C(N)NCCC[C@H](NC(=O)c1cccs1)C(=O)N[C@@H](CCCCN)C(=O)N[C@H](C(N)=O)c1ccc(OCc2ccccc2C(F)(F)F)cc1`, for which the IC50 came to 7.1 µM.

In turn, `N=C(N)NCCC[C@H](NC(=O)[C@H](CCCCN)NC(=O)[C@H](CCCCN)NC(=O)Cc1ccccc1)C(=O)NCc1ccccc1` (PhAc-Lys-Lys-Arg-NHBn) had an IC50 of 7.9 µM. This IC50 and that of the molecule before are within 1.5-fold of each other.

`N=C(N)NCCC[C@H](NC(=O)[C@H](CCCCN)NC(=O)[C@H](Cc1ccccc1)NC(=O)Cc1ccccc1)C(N)=O` (PhAc-Phe-Lys-Arg-NH2) gave an IC50 of 35 µM. Compared with the last molecule, the IC50 is about 4.4-fold higher.

In the case of `N=C(N)NCCC[C@H](NC(=O)[C@H](CCCCN)NC(=O)[C@H](CCCCN)NC(=O)C(F)c1ccccc1)C(N)=O` (mixture of isomers), the IC50 was 4.94 µM.

Turning to `CNC(=O)[C@@H](NC(=O)[C@H](CCCCN)NC(=O)[C@H](CCCCN)NC(=O)Cc1ccccc1)c1ccc(OCc2ccc(C(F)(F)F)cc2)cc1`, the IC50 was determined as 2.8 µM.

Consider `N=C(N)NCCC[C@H](NC(=O)[C@H](CCCCN)NC(=O)[C@H](Cc1cccc(CN)c1)NC(=O)Cc1ccccc1)C(N)=O`, for which the IC50 came to 37.5 µM.

As for `N=C(N)NCCC[C@H](NC(=O)c1cccs1)C(=O)N[C@@H](CCCCN)C(=O)N[C@H](C(N)=O)c1ccc(O)cc1`, the IC50 turned out to be 10.2 µM.

As to `N=C(N)NCCC[C@H](NC(=O)[C@H](CCCCN)NC(=O)[C@H](CCCCN)NC(=O)Cc1ccc(-c2ccccc2)cc1)C(N)=O`, the IC50 worked out at 1.55 µM. This IC50 lies about 6.6-fold lower than the previous one.

Molecule `N=C(N)NCCC[C@H](NC(=O)[C@H](CCCCN)NC(=O)[C@H](CCCCN)NC(=O)Cc1cccnc1)C(N)=O` yielded an IC50 of 4.49 µM.

`N=C(N)NCCC[C@H](NC(=O)c1cccs1)C(=O)N[C@@H](CCCCN)C(=O)NCc1ccc(OCc2ccc(C(F)(F)F)cc2)cc1` registered an IC50 of 8.2 µM.

The molecule `N=C(N)NCCC[C@H](NC(=O)c1cccs1)C(=O)N[C@@H](CCCCN)C(=O)N[C@H](C(N)=O)c1ccc(OCC2CCCCC2)cc1` registered an IC50 of 10.8 µM. The IC50 values of the last two molecules are within 1.5-fold of each other.

The molecule `NCCCC[C@H](NC(=O)Cc1ccc(Cl)c(Cl)c1)C(=O)N[C@@H](CCCCN)C(=O)N[C@H](C(=O)NCc1ccc(OCc2ccc(C(F)(F)F)cc2)cc1)c1ccccc1` showed an IC50 of 0.17 µM. Against the preceding molecule, the IC50 is about 64-fold lower.

Regarding `NCCCC[C@H](NC(=O)Cc1ccccc1)C(=O)N[C@@H](CCCCN)C(=O)N[C@H](C(=O)NCC1CCCCC1)c1ccccc1`, half-maximal inhibition (IC50) was put at 0.69 µM.

`N=C(N)NCCC[C@H](NC(=O)[C@H](CCN)NC(=O)[C@H](CCCCN)NC(=O)Cc1ccccc1)C(N)=O` (PhAc-Lys-[Dab]-Arg-NH2): the IC50 stood at 0.45 µM.

The molecule `N=C(N)NCCC[C@H](NC(=O)[C@H](CCCCN)NC(=O)[C@H](CCCCN)NC(=O)C1(c2ccccc2)CC1)C(N)=O` yielded an IC50 of 10.1 µM.

In turn, `NCCCC[C@H](NC(=O)Cc1ccccc1)C(=O)N[C@@H](CCCCN)C(=O)N[C@H](C(=O)Nc1ccccc1)c1ccc(OCc2ccc(C(F)(F)F)cc2)cc1` had an IC50 of 3.4 µM.

In turn, `N=C(N)NCCC[C@H](NC(=O)c1cccs1)C(=O)N[C@@H](CCCCN)C(=O)N[C@@H](C(N)=O)c1ccc(OCc2ccc(C(F)(F)F)cc2)cc1` displayed an IC50 of 1.6 µM.

`N=C(N)NCCC[C@H](NC(=O)c1cccs1)C(=O)N[C@@H](CCCCN)C(=O)N[C@H](C(N)=O)c1ccc(OCc2ccccc2)cc1` returned an IC50 of 7.6 µM.

Molecule `N=C(N)NCCC[C@H](NC(=O)[C@H](CCCCN)NC(=O)[C@H](CCCCN)NC(=O)Cc1ccc(Cl)c(Cl)c1)C(N)=O` displayed an IC50 of 1.23 µM. Compared with the last molecule, the IC50 is about 6.2-fold lower.

As to `N=C(N)NCCC[C@H](NC(=O)[C@H](CCCN)NC(=O)[C@H](CCCCN)NC(=O)Cc1ccccc1)C(N)=O` (PhAc-Lys-[Orn]-Arg-NH2), the IC50 turned out to be 3.9 µM.

For `NCCCC[C@H](NC(=O)Cc1ccccc1)C(=O)N[C@@H](CCCCN)C(=O)N[C@H](C(=O)NCC1CCCCC1)c1ccc(OCc2ccc(C(F)(F)F)cc2)cc1`, the IC50 amounted to 0.08 µM.

`NCCCC[C@H](NC(=O)c1ccccc1)C(=O)N[C@@H](CCCCN)C(=O)N[C@H](C(=O)NCc1ccccc1)c1ccc(OCc2ccc(C(F)(F)F)cc2)cc1` registered an IC50 of 0.09 µM.

In turn, `N=C(N)NCCC[C@H](NC(=O)[C@H](CCCCN)NC(=O)[C@H](CCCCN)NC(=O)Cc1cccs1)C(N)=O` returned an IC50 of 16.5 µM.

Molecule `NCCCC[C@H](NC(=O)Cc1ccc(Cl)c(Cl)c1)C(=O)N[C@@H](CCCCN)C(=O)N[C@H](C(=O)NCc1ccccc1)c1ccc(OCc2ccc(C(F)(F)F)cc2)cc1` yielded an IC50 of 0.17 µM.

As for `N=C(N)NCCC[C@H](NC(=O)c1cccs1)C(=O)N[C@@H](CCCCN)C(=O)NC(C(N)=O)c1ccc(-c2ccc(C(F)(F)F)cc2)cc1` (mixture of isomers), inhibition was half-maximal at 6.1 µM (IC50).

On to `NCCCC[C@H](NC(=O)Cc1ccccc1)C(=O)N[C@@H](CCCCN)C(=O)N[C@H](C(=O)NCc1ncco1)c1ccc(OCc2ccc(C(F)(F)F)cc2)cc1`, for which the IC50 came to 1.5 µM.

Molecule `NCCCC[C@H](NC(=O)Cc1ccccc1)C(=O)N[C@@H](CCCCN)C(=O)N[C@H](C(=O)NCc1ccc(OCc2ccc(C(F)(F)F)cc2)cc1)c1ccccc1` displayed an IC50 of 0.14 µM. This IC50 is about 11-fold lower than that of the molecule before.

Consider `NCCCC[C@H](NC(=O)CC1CCCCC1)C(=O)N[C@@H](CCCCN)C(=O)N[C@H](C(=O)NCc1ccccc1)c1ccc(OCc2ccc(C(F)(F)F)cc2)cc1`, for which the midpoint of inhibition, the IC50, lay at 0.15 µM.

Consider `CCOc1ccc([C@H](NC(=O)[C@H](CCCCN)NC(=O)[C@H](CCCNC(=N)N)NC(=O)c2cccs2)C(N)=O)cc1`, for which the IC50 came out at 17.9 µM.

`NCCCC[C@H](NC(=O)Cc1ccccc1)C(=O)N[C@@H](CCCCN)C(=O)N[C@@H](C(N)=O)c1ccccc1`: the IC50 worked out at 15 µM.

`COc1ccc(CNC(=O)[C@@H](NC(=O)[C@H](CCCCN)NC(=O)[C@H](CCCCN)NC(=O)Cc2ccccc2)c2ccc(OCc3ccc(C(F)(F)F)cc3)cc2)cc1` displayed an IC50 of 0.13 µM.

Consider `CN(Cc1ccccc1)C(=O)[C@H](CCCNC(=N)N)NC(=O)[C@H](CCCCN)NC(=O)[C@H](CCCCN)NC(=O)Cc1ccccc1`, for which inhibition was half-maximal at 70 µM (IC50).

The molecule `NCCCC[C@H](NC(=O)Cc1ccccc1)C(=O)N[C@@H](CCCCN)C(=O)N[C@H](C(=O)NCc1ccc(Cl)cc1)c1ccc(OCc2ccc(C(F)(F)F)cc2)cc1` yielded an IC50 of 0.16 µM.

For the molecule `NCCCCC(NC(=O)Cc1ccccc1)C(=O)N[C@@H](CCCCN)C(=O)NC(C(=O)NCc1ccccc1)c1ccc(OCc2ccc(C(F)(F)F)cc2)cc1` (single isomer, unassigned), inhibition was half-maximal at 1.12 µM (IC50).

Molecule `NCCCC[C@H](NC(=O)c1cccs1)C(=O)N[C@@H](CCCCN)C(=O)N[C@H](C(=O)NCc1ccc(OCc2ccc(C(F)(F)F)cc2)cc1)c1ccccc1` had an IC50 of 0.2 µM.

`N=C(N)NCCC[C@H](NC(=O)[C@H](CCCCN)NC(=O)[C@H](CCCCN)NC(=O)Cc1ccccc1)C(=O)NCCO` (PhAc-Lys-Lys-Arg-NHCH2CH2OH) returned an IC50 of 10.8 µM.

In the case of `NCCCC[C@H](NC(=O)Cc1ccccc1)C(=O)N[C@@H](CCCCN)C(=O)N[C@H](C(=O)NCc1ccccc1)c1ccc(OCc2ccc(C(F)(F)F)cc2)cc1`, it took 0.09 µM to reach half-maximal inhibition (IC50).

In turn, `N=C(N)NCCC[C@H](NC(=O)c1cccs1)C(=O)N[C@@H](CCCCN)C(=O)N[C@H](C(N)=O)c1ccc(OC2CCc3ccccc32)cc1` (mixture of isomers) showed an IC50 of 6.4 µM.

Turning to `NCCCC[C@H](NC(=O)Cc1ccccc1)C(=O)N[C@@H](CCCCN)C(=O)N[C@@H](C(=O)NCc1ccccc1)c1ccccc1`, half-maximal inhibition (IC50) required 1.9 µM. Against the preceding molecule, the IC50 is about 3.4-fold lower.

As to `N=C(N)NCCC[C@H](NC(=O)c1cccs1)C(=O)N[C@@H](CCCCN)C(=O)N[C@H](C(N)=O)c1ccc(OCc2ccc3[nH]ncc3c2)cc1`, the IC50 was found to be 5.3 µM.
